According to ChEMBL document CHEMBL4831517, “Optimization of a Series of RIPK2 PROTACs” (J Med Chem, 2021):
≈ marks a conversion by molar mass, not a printed value. Calls of active or inactive are those of the source. The calls are words filed in the database; no cut-off is given here.

Legend:
[1] = biological target: Receptor-interacting serine/threonine-protein kinase 2 (Homo sapiens, UniProt O43353); experiment: Inhibition of full length His-tagged RIPK2 (unknown origin) expressed in baculovirus expression system using fluorescent labelled ATP competitive ligand by fluorescent polarization based binding assay
Chain of Receptor-interacting serine/threonine-protein kinase 2 (O43353 whole entry): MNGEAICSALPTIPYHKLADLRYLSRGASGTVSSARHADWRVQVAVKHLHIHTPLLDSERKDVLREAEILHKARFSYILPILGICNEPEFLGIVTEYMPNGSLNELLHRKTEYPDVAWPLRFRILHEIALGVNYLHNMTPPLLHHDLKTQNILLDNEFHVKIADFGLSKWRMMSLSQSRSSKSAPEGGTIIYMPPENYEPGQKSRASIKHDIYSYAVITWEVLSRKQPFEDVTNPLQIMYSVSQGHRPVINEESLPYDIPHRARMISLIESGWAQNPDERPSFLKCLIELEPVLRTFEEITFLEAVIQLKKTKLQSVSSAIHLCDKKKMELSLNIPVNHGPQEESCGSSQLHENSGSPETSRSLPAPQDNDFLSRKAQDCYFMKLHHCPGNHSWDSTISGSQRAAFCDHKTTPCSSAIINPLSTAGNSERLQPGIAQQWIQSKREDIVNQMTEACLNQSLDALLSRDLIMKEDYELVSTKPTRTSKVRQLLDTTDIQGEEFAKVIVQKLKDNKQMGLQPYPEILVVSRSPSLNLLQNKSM

[2] = biological target: E3 ubiquitin-protein ligase XIAP/Receptor-interacting serine/threonine-protein kinase 2 (Homo sapiens, UniProt O43353+P98170); experiment: Protac activity at IAP/RIPK2 in human whole blood assessed as inhibition of MDP-induced TNFalpha production by ELISA; format: tissue-based
Chain of E3 ubiquitin-protein ligase XIAP/Receptor-interacting serine/threonine-protein kinase 2 (Homo sapiens, UniProt O43353+P98170) (P98170 whole entry): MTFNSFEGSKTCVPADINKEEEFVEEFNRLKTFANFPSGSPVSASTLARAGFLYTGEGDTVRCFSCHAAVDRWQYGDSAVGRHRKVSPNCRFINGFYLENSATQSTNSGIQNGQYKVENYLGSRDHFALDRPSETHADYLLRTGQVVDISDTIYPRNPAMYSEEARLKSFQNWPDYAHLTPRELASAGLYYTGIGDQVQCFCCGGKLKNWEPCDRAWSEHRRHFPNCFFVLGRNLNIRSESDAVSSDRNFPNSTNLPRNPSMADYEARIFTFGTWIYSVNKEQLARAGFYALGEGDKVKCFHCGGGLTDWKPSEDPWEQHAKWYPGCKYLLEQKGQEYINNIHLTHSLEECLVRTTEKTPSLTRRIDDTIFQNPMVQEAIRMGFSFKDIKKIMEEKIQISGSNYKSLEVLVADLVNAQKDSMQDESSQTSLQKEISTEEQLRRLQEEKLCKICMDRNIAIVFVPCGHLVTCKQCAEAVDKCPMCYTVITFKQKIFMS
Chain of E3 ubiquitin-protein ligase XIAP/Receptor-interacting serine/threonine-protein kinase 2 (Homo sapiens, UniProt O43353+P98170) (O43353 whole entry): as the sequence (O43353 whole entry) above

[3] = (§1) Ex vivo protac activity at IAP/RIPK2 in rat assessed as inhibition of MDP-induced TNFalpha release at 0.5 mg/kg, sc measured for 8 to 48 hrs; format: functional; set-up: scale not given: the % may be the effect or the level left; details: time 8-48 hrs
[4] = biological target: E3 ubiquitin-protein ligase XIAP (Homo sapiens, UniProt P98170); experiment: Binding affinity to human His-thr XIAP BIR3 (241 to 356) domain expressed in Escherichia coli measured after 105 mins in dark by time-resolved fluorescence laser-equipped multimode plate reader
Chain of E3 ubiquitin-protein ligase XIAP (P98170 whole entry): as the sequence (P98170 whole entry) above

[5] = (§2) Ex vivo protac activity at IAP/RIPK2 in rat assessed as RIPK2 degradation at 0.5 mg/kg, sc measured for 8 to 48 hrs; format: functional; details: time 8-48 hrs
[6] = Binding affinity to human His-thr XIAP BIR2 (124 to 240) domain expressed in Escherichia coli measured after 105 mins in dark by time-resolved fluorescence laser-equipped multimode plate reader
[7] = biological target: T1, von Hippel-Lindau disease tumor suppressor/Receptor-interacting serine/threonine-protein kinase 2 (Homo sapiens, UniProt O43353+P40337); experiment: Protac activity at VHL/RIPK2 in human THP-1 cells assessed as induction of RIPK2 degradation by measuring decrease in protein level incubated for 16 hrs by Western blot analysis; format: cell-based
T1 sequence (O43353 whole entry): as the sequence (O43353 whole entry) above
T1 sequence (P40337 whole entry): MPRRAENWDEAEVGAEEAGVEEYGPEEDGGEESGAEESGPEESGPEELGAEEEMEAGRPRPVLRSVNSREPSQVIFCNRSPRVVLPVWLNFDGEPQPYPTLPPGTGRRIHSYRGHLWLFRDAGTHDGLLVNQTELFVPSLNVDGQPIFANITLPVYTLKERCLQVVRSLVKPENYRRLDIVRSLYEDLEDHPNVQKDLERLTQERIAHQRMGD

[8] = biological target: T2, Protein cereblon/Receptor-interacting serine/threonine-protein kinase 2 (Homo sapiens, UniProt O43353+Q96SW2); experiment: Protac activity at CRBN/RIPK2 in human whole blood assessed as inhibition of MDP-induced TNFalpha production by ELISA; format: tissue-based
T2 sequence (O43353 whole entry): as the sequence (O43353 whole entry) above
T2 sequence (Q96SW2 whole entry): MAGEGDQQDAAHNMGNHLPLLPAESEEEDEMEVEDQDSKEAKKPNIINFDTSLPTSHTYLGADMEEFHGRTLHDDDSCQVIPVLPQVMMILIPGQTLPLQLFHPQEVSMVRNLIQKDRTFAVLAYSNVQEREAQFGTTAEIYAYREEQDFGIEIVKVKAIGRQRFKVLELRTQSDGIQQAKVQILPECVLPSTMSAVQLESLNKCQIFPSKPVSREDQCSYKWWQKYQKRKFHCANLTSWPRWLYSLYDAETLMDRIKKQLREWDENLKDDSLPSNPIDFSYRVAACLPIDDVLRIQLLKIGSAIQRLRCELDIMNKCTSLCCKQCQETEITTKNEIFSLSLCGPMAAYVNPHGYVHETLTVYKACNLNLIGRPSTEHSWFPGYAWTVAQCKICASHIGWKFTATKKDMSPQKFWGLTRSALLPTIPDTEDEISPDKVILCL

[9] = biological target: T1, von Hippel-Lindau disease tumor suppressor/Receptor-interacting serine/threonine-protein kinase 2; experiment: Protac activity at VHL/RIPK2 in human whole blood assessed as inhibition of MDP-induced TNFalpha production by ELISA; format: tissue-based
[10] = Solubility of the compound by chemiluminescent nitrogen detection (CLND) method; format: physicochemical
[11] = Lipophilicity, logD of compound at pH 7.4 by Chromatography; format: physicochemical; details: buffer
[12] = tested on: Rattus norvegicus; experiment: as §1; format: functional; details: time 8-48 hrs
[13] = tested on: Rattus norvegicus; experiment: as §2; format: functional; details: time 8-48 hrs
[14] = Metabolic stability in human liver microsomes assessed as intrinsic clearance using pH 7.4 phosphate buffer incubated for 45 mins by LC-MS/MS analysis; format: ADME, Microsome; details: pH 7.4, 0.75 h
[15] = Metabolic stability in rat liver microsomes assessed as intrinsic clearance using pH 7.4 phosphate buffer incubated for 45 mins by LC-MS/MS analysis; format: ADME, Microsome; details: pH 7.4, 0.75 h
[16] = biological target: E3 ubiquitin-protein ligase XIAP/Receptor-interacting serine/threonine-protein kinase 2 (Homo sapiens, UniProt P98170+O43353); experiment: Protac activity at IAP/RIPK2 in human THP-1 cells assessed as induction of RIPK2 degradation by measuring decrease in protein level incubated for 18 hrs by capillary-based immunoassay; format: cell-based
Chain of E3 ubiquitin-protein ligase XIAP/Receptor-interacting serine/threonine-protein kinase 2 (Homo sapiens, UniProt P98170+O43353) (P98170 whole entry): as the sequence (P98170 whole entry) above
Chain of E3 ubiquitin-protein ligase XIAP/Receptor-interacting serine/threonine-protein kinase 2 (Homo sapiens, UniProt P98170+O43353) (O43353 whole entry): as the sequence (O43353 whole entry) above

[17] = biological target: T2, Protein cereblon/Receptor-interacting serine/threonine-protein kinase 2; experiment: Protac activity at CRBN/RIPK2 in human THP-1 cells assessed as induction of RIPK2 degradation by measuring decrease in protein level incubated for 18 hrs by capillary-based immunoassay; format: cell-based

| Compound | IC50 [1] [nM] | IC50 [2] [nM] | other results |
| --- | --- | --- | --- |
| CN[C@@H](C)C(=O)N[C@H](C(=O)N1CCC[C@H]1c1nc(C(=O)c2ccc(F)cc2)cs1)C1CCN(C(=O)c2cnc(N3CCC(COc4cc5ncnc(Nc6n[nH]c(C)c6C)c5cc4S(=O)(=O)C(C)(C)C)CC3)nc2)CC1 | 10 | 25.1 | – |
| CN[C@H](C)C(=O)N[C@@H](C(=O)N1C[C@@H](NC(=O)c2cnc(N3CCN(CCCOc4cc5ncnc(Nc6n[nH]c(C)c6C)c5cc4S(=O)(=O)C(C)(C)C)CC3)cn2)C[C@H]1c1nc(C(=O)c2ccc(F)cc2)cs1)C(C)(C)C | 0.158 | 2.51 | – |
| CN[C@@H](C)C(=O)N[C@H](C(=O)N1CCC[C@H]1c1nc(C(=O)c2ccc(F)cc2)cs1)C1CCN(C(=O)c2cnc(N3CCN(CCCOc4cc5ncnc(Nc6n[nH]c(C)c6C)c5cc4S(=O)(=O)C(C)(C)C)CC3)cn2)CC1 | 12.6 | 1.58 | Activity [3]: 100%; IC50 [4]: 39.8 nM; Activity [5]: >70%; pIC50 [6]: 5.8 |
| Cc1ncsc1-c1ccc(CNC(=O)[C@@H]2C[C@@H](O)CN2C(=O)[C@@H](NC(=O)COCCOCCOCCOCCOc2cc3nccc(Nc4ccc5scnc5c4)c3cc2S(=O)(=O)C(C)(C)C)C(C)(C)C)cc1 | – | – | DC50 [7]: 1.5 nM; IC50 [8]: 100 nM; IC50 [9]: 100 nM |
| CN[C@@H](C)C(=O)N[C@H]1CN(C(=O)c2cnc(N3CCN(CCCOc4cc5ncnc(Nc6n[nH]c(C)c6C)c5cc4S(=O)(=O)C(C)(C)C)CC3)cn2)CC[C@H]2CC[C@@H](C(=O)NC3CCCc4ccccc43)N2C1=O (some centres undefined) | 6.31 | – | – |
| CN[C@@H](C)C(=O)N[C@H](C(=O)N1CCC[C@H]1c1nc(C(=O)c2ccc(F)cc2)cs1)C1CCN(C(=O)c2cnc(N3CCC(CCOc4cc5ncnc(Nc6n[nH]c(C)c6C)c5cc4S(=O)(=O)C(C)(C)C)CC3)nc2)CC1 | 39.8 | 15.8 | – |
| CN[C@@H](C)C(=O)N[C@H](C(=O)N1CCC[C@H]1c1nc(C(=O)c2ccc(F)cc2)cs1)C1CCN(C(=O)COCCOCCOCCOCCOc2cc3ncnc(Nc4n[nH]c(C)c4C)c3cc2S(=O)(=O)C(C)(C)C)CC1 | 158 | 63.1 | – |
| CN[C@@H](C)C(=O)N[C@H](C(=O)N1CCC[C@H]1c1nc(C(=O)c2ccc(F)cc2)cs1)C1CCN(C(=O)COCCOCCOCCOCCOc2cc3nccc(Nc4ccc5scnc5c4)c3cc2S(=O)(=O)C(C)(C)C)CC1 | 5.01 | 10 | solubility kinetic [10]: 308 µM (≈ 348 µg/mL); chromatographic logD [11]: 4.5 |
| CC[C@@H](NC(=O)[C@@H]1C[C@H](NC(=O)COCCOCCOCCOCCOc2cc3nccc(Nc4ccc5scnc5c4)c3cc2S(=O)(=O)C(C)(C)C)CN1C(=O)[C@@H](NC(=O)[C@H](C)NC)C(C)(C)C)c1ccccc1 | 2 | 25.1 | solubility kinetic [10]: > 235 µM; chromatographic logD [11]: 5.6 |
| CN[C@H](C)C(=O)N[C@H](C(=O)N1C[C@@H](NC(=O)c2cnc(N3CCN(CCCOc4cc5ncnc(Nc6n[nH]c(C)c6C)c5cc4S(=O)(=O)C(C)(C)C)CC3)cn2)C[C@H]1C(=O)Nc1c(F)cccc1F)C(C)(C)C | – | – | Activity [12]: Active; IC50 [4]: 6310 nM; Activity [13]: Active |
| CN[C@@H](C)C(=O)N[C@H](C(=O)N1CCC[C@H]1c1nc(C(=O)c2ccc(F)cc2)cs1)C1CCN(C(=O)c2ccc(N3CCN(CCOc4cc5ncnc(Nc6n[nH]c(C)c6C)c5cc4S(=O)(=O)C(C)(C)C)CC3)nc2)CC1 | 126 | 10 | solubility kinetic [10]: > 304 µM; CLH [14]: 1.17 mL/min/g; CLH [15]: 0.55 mL/min/g |
| CN[C@@H](C)C(=O)N[C@H](C(=O)N1CCC[C@H]1c1nc(C(=O)c2ccc(F)cc2)cs1)C1CCN(C(=O)c2cnc(N3CCN(CCCOc4cc5ncnc(Nc6n[nH]c(C)c6C)c5cc4S(=O)(=O)C(C)(C)C)CC3)nc2)CC1 | 7.94 | 2 | – |
| Cc1[nH]nc(Nc2ncnc3cc(OCCCN4CCN(C(=O)c5cnc(N6CCN(C[C@H]7CN[C@H](C)CN7CC(=O)N7CC(C)(C)c8ncc(Cc9ccc(F)cc9)cc87)[C@H](C)C6)nc5)CC4)c(S(=O)(=O)C(C)(C)C)cc23)c1C | 25.1 | 2.51 | – |
| CN[C@@H](C)C(=O)N[C@H]1CN(C(=O)c2cnc(N3CCN(CCCOc4cc5ncnc(Nc6n[nH]c(C)c6C)c5cc4S(=O)(=O)C(C)(C)C)CC3)cn2)CC[C@H]2CC[C@@H](C(=O)N[C@@H]3CCCc4ccccc43)N2C1=O | 0.1 | 3.16 | – |
| CN[C@@H](C)C(=O)N[C@H](C(=O)N1Cc2cc(OCCOCCOCCOCCOc3cc4nccc(Nc5ccc6scnc6c5)c4cc3S(=O)(=O)C(C)(C)C)ccc2C[C@@H]1C(=O)N[C@@H]1CCCc2ccccc21)C(C)(C)C | 10 | 10 | solubility kinetic [10]: 21 µM (≈ 22.9 µg/mL); chromatographic logD [11]: 6.1; DC50 [16]: 0.2 nM |
| CN[C@@H](C)C(=O)N[C@H](C(=O)N1CCC[C@H]1c1nc(C(=O)c2ccc(F)cc2)cs1)C1CCN(C(=O)c2cnc(N3CCC(CCCOc4cc5ncnc(Nc6n[nH]c(C)c6C)c5cc4S(=O)(=O)C(C)(C)C)CC3)nc2)CC1 | 31.6 | 3.16 | – |
| CN[C@@H](C)C(=O)N[C@H](C(=O)N1CCC[C@H]1c1nc(C(=O)c2ccc(F)cc2)cs1)C1CCN(C(=O)c2ccc(N3CCN(CCCOc4cc5ncnc(Nc6n[nH]c(C)c6C)c5cc4S(=O)(=O)C(C)(C)C)CC3)nc2)CC1 | 10 | 7.94 | – |
| CN[C@@H](C)C(=O)N[C@H](C(=O)N1CCC[C@H]1c1nc(C(=O)c2ccc(F)cc2)cs1)C1CCN(C(=O)c2ccc(N3CCN(CCCOc4cc5ncnc(Nc6n[nH]c(C)c6C)c5cc4S(=O)(=O)C(C)(C)C)CC3)cc2)CC1 | 31.6 | 12.6 | – |
| CN[C@@H](C)C(=O)N[C@H](C(=O)N1C[C@@H](NC(=O)c2cnc(N3CCN(CCCOc4cc5ncnc(Nc6n[nH]c(C)c6C)c5cc4S(=O)(=O)C(C)(C)C)CC3)cn2)CC1C(=O)NC1CCCc2ccccc21)C(C)(C)C (some centres undefined) | 12.6 | – | – |
| CN[C@@H](C)C(=O)N[C@H](C(=O)N1Cc2cc(OCCOCCOCCOCCOc3cc4ncnc(Nc5n[nH]c(C)c5C)c4cc3S(=O)(=O)C(C)(C)C)ccc2CC1C(=O)N[C@@H]1CCCc2ccccc21)C(C)(C)C (single isomer, unassigned) | 398 | 31.6 | – |
| CN[C@@H](C)C(=O)N[C@H](C(=O)N1CCC[C@H]1c1nc(C(=O)c2ccc(F)cc2)cs1)C1CCN(C(=O)c2cnc(N3CCN(CCOc4cc5ncnc(Nc6n[nH]c(C)c6C)c5cc4S(=O)(=O)C(C)(C)C)CC3)nc2)CC1 | – | 20 | solubility kinetic [10]: > 311 µM; CLH [14]: 0.74 mL/min/g; CLH [15]: 0.48 mL/min/g |
| Cc1[nH]nc(Nc2ncnc3cc(OCCCN4CCN(C(=O)c5cnc(N6CCN(C[C@H]7CN[C@H](C)CN7CC(=O)N7CC(C)(C)c8c7cc(Cc7ccc(F)cc7)c(=O)n8C)[C@H](C)C6)nc5)CC4)c(S(=O)(=O)C(C)(C)C)cc23)c1C | 7.94 | 6.31 | IC50 [4]: 12.6 nM; pIC50 [6]: < 4 |
| CN[C@@H](C)C(=O)N[C@H](C(=O)N1CCC[C@H]1c1nc(C(=O)c2ccc(F)cc2)cs1)C1CCN(C(=O)c2cnc(N3CCN(CCOc4cc5ncnc(Nc6n[nH]c(C)c6C)c5cc4S(=O)(=O)C(C)(C)C)CC3)cn2)CC1 | 158 | 15.8 | solubility kinetic [10]: 271 µM (≈ 296 µg/mL); CLH [14]: 0.57 mL/min/g; CLH [15]: < 0.46 mL/min/g |
| CC(C)(C)S(=O)(=O)c1cc2c(Nc3ccc4scnc4c3)ccnc2cc1OCCOCCOCCOCCOCC(=O)Nc1cccc2c1CN(C1CCC(=O)NC1=O)C2=O (centres undefined) | – | – | DC50 [17]: 6.2 nM; IC50 [8]: 63.1 nM |
